Reference: ChEMBL document CHEMBL1201862, “PubChem BioAssay data set” (2004)
Values belong to the molecule of their own block, whether it stands above or below them. Calls of active or inactive are those of the source.

Columns and labels:
Type in all cases: functional
[1] = insulin promoter down-regulators in MIN6 cells, imaging, high-content screening, mouse beta cells (AID 1628)
[2] = cytotoxicity in MIN6 insulinoma cells, dose response, cytotoxicity control, cell-based, mouse insulinoma (AID 2122);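 note: confirmatory high-throughput counterscreen run to flag cytotoxic compounds; mouse MIN-6 beta cells carrying an insulin promoter eGFP reporter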
Galanin receptor type 2 = Galanin receptor type 2 (Homo sapiens, UniProt O43603); test: Dose Response cell-based high-throughput screening assay to identify antagonists of galanin receptor 2 (GALR2). [Related pubchem assays: 828, 866 ]
[3] = Shn3 3'UTR reporter inhibitors, dose response, cell-based, Clone20 osteoblasts, firefly luciferase, cherry-picked (AID 624132);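 note: firefly luciferase luminescence from reporter carrying the Shn3 3'UTR in osteoblasts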
[4] = control 3'UTR Renilla luciferase suppression, dose response, counter-screen for Shn3 inhibitor project, cell-based, Clone20-Shn3RL, cherry-picked (AID 624133)
[5] = target: Intestinal-type alkaline phosphatase (Mus musculus, UniProt P24822); test: PubChem AID 488785
[6] = target: T1, Alkaline phosphatase, tissue-nonspecific isozyme (Homo sapiens, UniProt P05186); test: TNAP enzyme inhibition by screening hits, dose response, selectivity assay for mouse IAP inhibitor project, biochemical, human TNAP, uHTS hits (AID 488906)
T1 sequence (P05186 whole entry): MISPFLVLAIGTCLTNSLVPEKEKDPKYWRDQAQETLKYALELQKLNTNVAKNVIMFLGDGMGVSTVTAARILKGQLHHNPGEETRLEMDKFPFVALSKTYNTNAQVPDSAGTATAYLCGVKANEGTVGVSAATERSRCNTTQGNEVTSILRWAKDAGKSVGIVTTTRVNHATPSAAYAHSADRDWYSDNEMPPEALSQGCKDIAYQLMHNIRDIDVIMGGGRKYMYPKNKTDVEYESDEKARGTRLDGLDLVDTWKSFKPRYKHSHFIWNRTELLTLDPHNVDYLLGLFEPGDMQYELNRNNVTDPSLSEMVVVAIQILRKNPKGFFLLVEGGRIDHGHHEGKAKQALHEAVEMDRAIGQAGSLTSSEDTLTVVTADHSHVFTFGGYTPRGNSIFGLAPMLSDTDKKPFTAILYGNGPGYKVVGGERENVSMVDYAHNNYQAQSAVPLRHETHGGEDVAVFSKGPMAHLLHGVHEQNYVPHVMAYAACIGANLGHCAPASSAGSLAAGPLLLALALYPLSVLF

[7] = target: Intestinal-type alkaline phosphatase (Homo sapiens, UniProt P09923); test: inhibition of human intestinal alkaline phosphatase – biochemical, dose response (AID 488876)
[8] = target: T2, Kappa-type opioid receptor (Homo sapiens, UniProt P41145); test: SAR analysis of small molecule agonists of the kappa opioid receptor via a luminescent beta-arrestin assay. [Related pubchem assays (depositor defined):AID1777, AID1786, AID1966, AID2133, AID2136, AID2348, AID2352, AID2357, AID2359, AID2370, AID2420, AID2478, AID2491, AID2492, AID2493, AID2497, AID2498, AID2500, AID449737, AID488822, AID488842]
Mu-type opioid receptor [9] = target: T3, Mu-type opioid receptor (Homo sapiens, UniProt P35372); test: MOR agonists by imaging, SAR follow-up, image-based (AID 2352)
[10] = target: T4, Delta-type opioid receptor (Homo sapiens, UniProt P41143); test: DOR agonists, SAR follow-up, image-based (AID 2370)
[11] = target: T2, Kappa-type opioid receptor; test: KOR antagonists by imaging, SAR follow-up, image-based (AID 2348)
Mu-type opioid receptor [12] = target: T3, Mu-type opioid receptor; test: MOR antagonists, SAR follow-up, image-based (AID 2420);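 note: compounds added before stimulation of receptor with agonist DAMGO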
[13] = target: T2, Kappa-type opioid receptor; test: KOR agonist analogs, imaging readout, SAR follow-up, image-based (AID 2359)
[14] = target: T4, Delta-type opioid receptor; test: DOR antagonists, SAR follow-up, image-based (AID 2357)

T2 sequence (P41145 whole entry): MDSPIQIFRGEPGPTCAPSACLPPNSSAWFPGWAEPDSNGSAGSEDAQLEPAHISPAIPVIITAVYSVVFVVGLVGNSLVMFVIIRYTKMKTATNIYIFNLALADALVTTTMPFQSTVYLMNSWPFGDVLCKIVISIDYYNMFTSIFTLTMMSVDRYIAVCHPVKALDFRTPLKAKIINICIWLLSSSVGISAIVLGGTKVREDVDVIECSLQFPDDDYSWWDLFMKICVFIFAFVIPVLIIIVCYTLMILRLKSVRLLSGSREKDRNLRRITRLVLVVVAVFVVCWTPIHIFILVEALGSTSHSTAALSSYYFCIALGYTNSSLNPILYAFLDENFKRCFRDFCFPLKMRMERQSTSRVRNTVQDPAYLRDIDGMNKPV
T3 sequence (P35372 whole entry): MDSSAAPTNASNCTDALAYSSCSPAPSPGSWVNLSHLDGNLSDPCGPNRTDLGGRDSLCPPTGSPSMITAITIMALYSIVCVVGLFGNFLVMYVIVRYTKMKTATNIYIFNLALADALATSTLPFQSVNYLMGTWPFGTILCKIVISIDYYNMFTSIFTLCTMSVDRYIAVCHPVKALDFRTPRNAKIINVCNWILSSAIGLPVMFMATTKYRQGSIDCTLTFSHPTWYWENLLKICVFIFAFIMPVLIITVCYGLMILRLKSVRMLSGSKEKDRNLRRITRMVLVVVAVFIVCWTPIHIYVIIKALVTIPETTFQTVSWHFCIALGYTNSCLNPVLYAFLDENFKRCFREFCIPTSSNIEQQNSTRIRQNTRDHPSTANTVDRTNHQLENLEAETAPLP
T4 sequence (P41143 whole entry): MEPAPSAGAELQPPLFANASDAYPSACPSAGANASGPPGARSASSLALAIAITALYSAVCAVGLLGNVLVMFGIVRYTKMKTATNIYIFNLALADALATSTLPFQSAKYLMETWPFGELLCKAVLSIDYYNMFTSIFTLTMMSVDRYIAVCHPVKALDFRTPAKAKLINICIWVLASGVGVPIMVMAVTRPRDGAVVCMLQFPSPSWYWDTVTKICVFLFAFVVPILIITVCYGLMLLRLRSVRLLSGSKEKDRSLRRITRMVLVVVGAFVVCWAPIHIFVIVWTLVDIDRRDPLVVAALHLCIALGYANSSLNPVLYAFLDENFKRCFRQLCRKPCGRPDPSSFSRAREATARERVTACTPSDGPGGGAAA
Galanin receptor type 2, sequence (O43603 whole entry): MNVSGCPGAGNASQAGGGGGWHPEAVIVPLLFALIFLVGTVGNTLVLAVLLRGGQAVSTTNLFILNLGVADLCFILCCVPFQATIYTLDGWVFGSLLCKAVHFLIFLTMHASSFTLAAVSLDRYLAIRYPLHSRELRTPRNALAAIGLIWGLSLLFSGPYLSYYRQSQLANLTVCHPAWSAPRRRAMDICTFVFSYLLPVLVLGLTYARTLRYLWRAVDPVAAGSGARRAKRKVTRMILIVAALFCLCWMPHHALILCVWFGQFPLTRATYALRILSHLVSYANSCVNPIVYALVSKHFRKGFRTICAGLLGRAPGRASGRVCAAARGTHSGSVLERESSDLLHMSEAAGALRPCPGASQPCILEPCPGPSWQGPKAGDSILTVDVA
Intestinal-type alkaline phosphatase (Mus musculus, UniProt P24822), sequence (P24822 whole entry): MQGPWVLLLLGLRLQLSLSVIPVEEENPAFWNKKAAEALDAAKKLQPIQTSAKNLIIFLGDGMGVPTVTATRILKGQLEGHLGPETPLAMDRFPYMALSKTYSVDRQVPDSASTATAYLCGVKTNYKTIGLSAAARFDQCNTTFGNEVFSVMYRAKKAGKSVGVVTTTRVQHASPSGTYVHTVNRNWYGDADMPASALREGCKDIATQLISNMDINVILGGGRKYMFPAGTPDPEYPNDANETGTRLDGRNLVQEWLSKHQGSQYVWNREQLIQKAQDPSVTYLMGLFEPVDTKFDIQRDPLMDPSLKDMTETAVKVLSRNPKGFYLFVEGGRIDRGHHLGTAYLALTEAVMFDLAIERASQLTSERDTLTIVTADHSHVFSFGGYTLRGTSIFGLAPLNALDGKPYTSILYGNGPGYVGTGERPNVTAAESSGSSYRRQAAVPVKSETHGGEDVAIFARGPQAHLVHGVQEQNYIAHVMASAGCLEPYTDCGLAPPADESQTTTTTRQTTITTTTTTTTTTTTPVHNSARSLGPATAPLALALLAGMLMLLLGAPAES
Intestinal-type alkaline phosphatase (Homo sapiens, UniProt P09923), sequence (P09923 whole entry): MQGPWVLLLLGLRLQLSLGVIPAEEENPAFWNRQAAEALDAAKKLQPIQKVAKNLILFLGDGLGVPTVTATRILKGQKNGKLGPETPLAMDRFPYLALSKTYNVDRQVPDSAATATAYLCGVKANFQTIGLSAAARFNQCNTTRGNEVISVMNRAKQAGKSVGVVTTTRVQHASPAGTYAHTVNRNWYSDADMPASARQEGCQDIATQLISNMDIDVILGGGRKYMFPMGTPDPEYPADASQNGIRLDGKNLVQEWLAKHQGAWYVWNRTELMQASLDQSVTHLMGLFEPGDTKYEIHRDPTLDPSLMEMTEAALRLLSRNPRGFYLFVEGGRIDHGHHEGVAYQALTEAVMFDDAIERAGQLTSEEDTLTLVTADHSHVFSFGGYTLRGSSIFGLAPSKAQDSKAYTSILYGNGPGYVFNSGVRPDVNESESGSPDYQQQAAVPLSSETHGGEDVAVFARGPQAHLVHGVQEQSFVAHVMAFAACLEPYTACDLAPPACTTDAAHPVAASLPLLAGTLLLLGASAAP

Compound: COC(=O)c1ccc(COC(=O)c2[nH]c(C)c(C(C)=O)c2C)o1
IC50 [1]: 2.72 µM (active)
IC50 [2]: 3.23 µM (active)
IC50 (Galanin receptor type 2): > 42 µM (not active)
AC50 [3]: 2.58 µM (active)
AC50 [4]: 2.46 µM (active)

IC50 [5]: 7.93 µM (active)
IC50 [6]: 74.2 µM (active)
IC50 [7]: 26.6 µM (active)
Compound: CN(CC(=O)NC(c1ccccc1)c1ccccc1)Cc1nc(O)c2ccccc2n1

EC50 [8]: > 10 µM (inactive)
EC50 (Mu-type opioid receptor [9]): > 32 µM (inactive)
EC50 [10]: > 32 µM (inactive)
IC50 [11]: > 32 µM (inactive)
IC50 (Mu-type opioid receptor [12]): > 32 µM (inactive)
EC50 [13]: 19.9 µM (inactive)
IC50 [14]: > 32 µM (inactive)
Compound: CCCCN(Cc1cc2cc(OC)ccc2[nH]c1=O)C(=O)c1ccccn1
